Experimental data published in the NIST ThermoML archive (doi:10.1021/je100300s).

Assay: refractive index (Na D-line) (dimensionless); xn = mol fraction of the nth substance listed
Details: 101 kPa, Liquid, Standard Abbe refractometry

CC(O)CN (stereo not drawn) [1-amino-2-propanol] + O
refractive index
Details	293.15 K	298.15 K	303.15 K	308.15 K	313.15 K	318.15 K	323.15 K	328.15 K	333.15 K
x1 = 0.05	1.35692	1.35622	1.35539	1.35453	1.35365	1.35269	1.35169	1.35059	1.35023
x1 = 0.07	1.36527	1.36437	1.36345	1.36246	1.36149	1.36047	1.35931	1.35816	1.35711
x1 = 0.0986	1.3763	1.37524	1.37416	1.37306	1.37191	1.37079	1.36955	1.36821	1.36712
x1 = 0.1993	1.40333	1.40184	1.40038	1.39868	1.39716	1.39563	1.39469	1.39247	1.39103
x1 = 0.3003	1.41934	1.41723	1.41554	1.41385	1.41214	1.41051	1.40883	1.4072	1.40563
x1 = 0.3955	1.42844	1.4268	1.42513	1.42331	1.42155	1.41987	1.41801	1.4164	1.4146
x1 = 0.4929	1.43452	1.43286	1.431	1.42913	1.4273	1.42548	1.42386	1.4226	1.42038
x1 = 0.5995	1.43934	1.4377	1.4359	1.43375	1.43187	1.43017	1.42857	1.42697	1.42445
x1 = 0.7002	1.44298	1.44053	1.43897	1.43685	1.43493	1.43243	1.43146	1.43006	1.42775
x1 = 0.8006	1.44474	1.44287	1.4411	1.43908	1.43715	1.43532	1.43369	1.43134	1.42949
x1 = 0.8992	1.44655	1.4447	1.44275	1.44076	1.43889	1.43691	1.4349	1.43292	1.43089
x1 = 1	1.448	1.44609	1.44409	1.44211	1.44009	1.43817	1.43631	1.43405	1.43208
